In patent US12570638B2, “Fused imidazole derivatives as AHR antagonists” (Sail Biomedicines, Inc., priority 2020, dated 2026):
In brackets after ≈: the same amount, converted by molar mass. Read-outs that look alike come from different tables or passages of the source.

Columns and labels:
[1] = Liver Microsome Stability Assay, human; assay type: in vitro ADME; conditions: human liver microsomes, with NADPH, 1 μM compound, read-out: Human liver microsome clearance
Protocol: The master solution was prepared according to Table 6.
Two separate experiments were performed as follows.
With Cofactors (NADPH): 25 μL of 10 mM NADPH was added to the incubations. The final concentrations of microsomes and NADPH were 0.5 mg/mL and 1 mM, respectively. The final concentration of microsomes was 0.5 mg/mL. The mixture was pre-warmed at 37° C. for 10 minutes. The reaction was started with the addition of 2.5 μL of 100 μM control compound or test compound solutions. Verapamil was used as positive control in this study. The final concentration of test compound or control compound was 1 μM. The incubation solution was incubated in water batch at 37° C. Aliquots of 25 μL were taken from the reaction solution at 0.5, 5, 15, 30 and 60 minutes. The reaction was stopped by the addition of 5 volumes of cold acetonitrile with IS (200 nM caffeine and 100 nM tolbutamide). Samples were centrifuged at 3, 220 g for 40 minutes. Aliquot of 100 μL of the supernatant was mixed with 100 μL of ultra-pure H2O and then used for LC-MS/MS analysis.
Data Analysis: All calculations were carried out using Microsoft Excel. Peak areas were determined from extracted ion chromatograms. The slope value, k, was determined by linear regression of the natural logarithm of the remaining percentage of the parent drug vs. incubation time curve.
The in vitro half-life (in vitro t1/2) was determined from the slope value: in vitro t1/2=−([…]/k)
Conversion of the in vitro t1/2 (min) into the in vitro intrinsic clearance (in vitro CLint, in μL/min/mg protein) was done using the following equation (mean of duplicate determinations):
The calculations of Scaled-up CLint (mL/min/kg), Predicted CLH (mL/min/kg) and EH were done using the following equation: Scaled-up CLint=(0.693/t1/2)×(1/(microsomal protein concentration(0.5 mg/mL)))×Scaling Factors; Predicted CLH=(QH×Scaled-up CLint×fub)/(QH+Scaled-up CLint×fub); EH=Predicted CLH/QH • where QH is the hepatic blood flow (mL/min/kg) (Table 7), • fub is the fraction of unbound drug in plasma which is assumed to be 1. […]

[2] = biological target: T1, AHR (Homo sapiens, UniProt P35869); assay: DRE-Luciferase Reporter Assay (HepG2 AhR-Lucia reporter cells); assay type: cell-based; conditions: luciferase activity with AHR activating ligand at EC50, read-out: HepG2-Luc IC50
T1 construct: other cell line with a DRE-luciferase reporter stably transfected; endogenous in cells; host or cells: Human HepG2 liver carcinoma AhR-Lucia reporter cells
T1 sequence (P35869 11-848): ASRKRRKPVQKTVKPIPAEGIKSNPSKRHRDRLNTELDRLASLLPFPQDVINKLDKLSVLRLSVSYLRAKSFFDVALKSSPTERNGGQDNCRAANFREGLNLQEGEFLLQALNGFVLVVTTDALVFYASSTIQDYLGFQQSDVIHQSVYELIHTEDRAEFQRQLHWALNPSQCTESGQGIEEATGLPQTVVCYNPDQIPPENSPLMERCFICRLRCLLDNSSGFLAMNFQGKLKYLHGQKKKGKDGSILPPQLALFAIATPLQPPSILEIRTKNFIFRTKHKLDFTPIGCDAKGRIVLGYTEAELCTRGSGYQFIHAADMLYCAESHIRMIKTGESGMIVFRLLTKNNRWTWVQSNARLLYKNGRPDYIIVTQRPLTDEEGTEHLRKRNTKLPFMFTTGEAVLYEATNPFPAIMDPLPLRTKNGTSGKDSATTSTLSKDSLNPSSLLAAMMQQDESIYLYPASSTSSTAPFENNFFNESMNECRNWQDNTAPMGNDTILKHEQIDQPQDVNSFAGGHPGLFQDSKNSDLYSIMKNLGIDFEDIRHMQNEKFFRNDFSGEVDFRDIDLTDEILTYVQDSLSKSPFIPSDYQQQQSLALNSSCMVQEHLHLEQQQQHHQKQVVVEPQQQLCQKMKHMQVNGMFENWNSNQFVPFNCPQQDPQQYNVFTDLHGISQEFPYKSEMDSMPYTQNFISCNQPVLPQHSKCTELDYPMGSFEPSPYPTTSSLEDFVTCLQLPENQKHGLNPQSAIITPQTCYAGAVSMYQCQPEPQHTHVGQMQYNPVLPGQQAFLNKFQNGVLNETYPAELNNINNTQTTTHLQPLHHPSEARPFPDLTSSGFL
Description: AHR binds to Dioxin Responsive Elements (DRE) upstream of genes that it activates. One measure of AHR activity is activation of a reporter gene, such as luciferase, downstream of one or multiple DRE elements. Luciferase activity will reflect activation and inhibition of AHR in the cells expressing his reporter. 20000 Human HepG2 liver carcinoma—AhR-Lucia reporter cells or Human HT29 colon adenocarcinoma—AhR reporter cells or other cell line with a DRE-luciferase reporter stably transfected were plated in Eagle's Minimal Essential Medium, 10% heat-inactivated FBS, 1× non-essential amino acids Pen-Strep (10,000 U/mL) and Normocin (100 ug/mL) in plates (96-well, 384-well or other plates) and incubated overnight at 37° C. in a CO2 incubator and treated with and without AhR antagonists at a log dilution starting at 100 uM.
After 1 hr that cells were plated an AHR activating ligand, such as TCDD, kynurenine, ITE (2-(1H-indole-3-ylcarbonyl)-4-thiazolecarboxylic methyl ester), VAF347, BNF (beta-naphthoflavone), FICZ (6-formylindolo(3,2-b) carbazole) or other AHR ligands at their specific EC50 concentration, were added to the cells with or without AHR antagonist.
Cells were incubated for 24 or 48 hours or another time point and then, supernatant was analyzed for determination of luciferase activity as a read-out of the AHR activation or inhibition. Luciferase was measured with the commercial kit QUANTI-Luc™ assay solution kit from Invivogen following the manufacturer's instructions.
The level of luciferase with only agonist ligand added was the maximum signal while the luciferase with […] was the minimum signal. IC50 values were determined as the concentration which inhibits half of the luciferase activity.

[3] = Solubility Determination Assay (PBS, LC-MS/MS); assay type: physicochemical; conditions: aqueous buffer, kinetic from dmso stock
Protocol: The stock solutions of test compounds and control compound progesterone were prepared in DMSO at the concentrations of 10 mM. 15 μL of stock solution (10 mM) of each sample was placed in order into their proper 96-well rack. 485 μL of PBS pH 1.6 and pH 7.4 were added into each vial of the cap-less Solubility Sample plate. The assay was performed in singlet. One stir stick was added to each vial and then the vial was sealed using a molded PTFE/Silicone plug. […] After completion of the 2 hours, plugs were removed and the stir sticks were removed using a big magnet. The samples from the Solubility Sample plate were transferred into the filter plate. Using the Vacuum Manifold, all the samples were filtered. An aliquot of 5 μL was taken from the filtrate followed by addition of 495 μL of a mixture of H2O and acetonitrile containing internal standard (1:1). A certain proportion of ultrapure water was used to dilute the diluent according to the peak shape. The dilution factor was changed according to the solubility values and the LC-MS signal response.
From the 10 mM DMSO STD plate, 6 μL was transferred into the remaining empty plate, and then 194 μL of DMSO were added to that plate to have a STD concentration of 300 μM. From the 300 μM DMSO STD plate, 5 μL were transferred into the remaining empty plate, and then 495 μL of a mixture of H2O and acetonitrile containing internal standard (1:1) were added to that plate to have a final STD concentration of 3 μM. A certain proportion of ultrapure water was used to dilute the diluent according to the peak shape. The concentrations of the standard samples were changed according to the LC-MS signal response.
The plate was placed into the well plate autosampler. The samples were evaluated by LC-MS/MS analysis.
All calculations were carried out using Microsoft Excel.
The filtrate was analyzed and quantified against a standard of known concentration using LC coupled with mass spectral peak identification and quantitation. Solubility values of the test compound and control compound were calculated as follows: […]
Any value of the compounds that was not within the specified limits was rejected and the experiment was repeated.
“+++” indicates a solubility value equal to or greater than 10 μM, “++” indicates a solubility value between 1 and 10 μM, and “+” indicates a solubility value less than 1 μM.

[4] = PBS pH 1.6, 25° C., read-out: Aq. Solubility at pH = 1.6
[5] = PBS pH 7.4, 25° C., read-out: Aq. Solubility at pH = 7.4

Row | CLint scaled at 1 μM [1] | IC50 [2] | solubility at 2 h [3, 4] | solubility at 2 h [3, 5] | Compound
1 | < 10 mL/min/kg | 100 to 500 nM | > 10 µM | 1 to 10 µM (≈ 0.367 to 3.67 µg/mL) | Cn1nccc1C(=O)Nc1ccc2nc(-c3ccccc3C(F)F)[nH]c2c1 [Compound C, N-(2-(2-(difluoromethyl)phenyl)-1H-benzo[d]imidazol-6-yl)-1-methyl-1H-pyrazole-5-carboxamide]
2 | – | < 100 nM | > 10 µM | 1 to 10 µM (≈ 0.368 to 3.68 µg/mL) | Cn1ncnc1C(=O)Nc1ccc2nc(-c3ccccc3C(F)F)[nH]c2c1 [D, N-(2-(2-(difluoromethyl)phenyl)-1H-benzo[d]imidazol-6-yl)-1-methyl-1H-1,2,4-triazole-5-carboxamide]
3 | – | 100 to 500 nM | – | – | Cc1ccccc1-c1nc2ccc(NC(=O)c3ccnn3C)cc2[nH]1 [B, 1-methyl-N-(2-(o-tolyl)-1H-benzo[d]imidazol-6-yl)-1H-pyrazole-5-carboxamide]
4 | – | 100 to 500 nM | – | – | Cc1ccccc1-c1nc2ccc(NC(=O)c3ncnn3C)cc2[nH]1 [G, 1-methyl-N-(2-(o-tolyl)-1H-benzo[d]imidazol-6-yl)-1H-1,2,4-triazole-5-carboxamide]
